Calls of active or inactive are those of the source. The rule behind the calls is not given here.
Experiments:
MDA-MB-231 [1] = assay: Reduction in HDAC-8 nuclear expression in estrogen receptor-negative human MDA-MB-231 cells at 2 uM after 24 hrs by Western blotting analysis; assay type: functional, cell-based
MCF7 [2] = assay: Inhibition of NFkappaB activity in estrogen receptor-positive human MCF7 cells at 2 uM after 24 hrs by SEAP reporter assay; assay type: cell-based
MDA-MB-231 [3] = assay: Inhibition of NFkappaB activity in estrogen receptor-negative human MDA-MB-231 cells assessed as retention of NFKappaB/Rel A in cytoplasm at 2 uM after 24 hrs by DAPI/PI staining-based confocal microscopy; assay type: cell-based
MDA-MB-231 [4] = assay: Cell cycle arrest in estrogen receptor-negative human MDA-MB-231 cells assessed as decrease in CDK2 expression at 2 uM after 24 hrs by Western blotting analysis; assay type: functional, cell-based
MDA-MB-231 [5] = assay: Induction of apoptosis in estrogen receptor-negative human MDA-MB-231 cells assessed as increase in Rb cleavage at 2 uM after 24 hrs by Western blotting analysis; assay type: functional, cell-based
MDA-MB-231 [6] = assay: Induction of apoptosis in estrogen receptor-negative human MDA-MB-231 cells assessed as increase in PARP cleavage at 2 uM after 24 hrs by Western blotting analysis; assay type: functional, cell-based
MDA-MB-231 [7] = assay: Inhibition of NFkappaB activity in estrogen receptor-negative human MDA-MB-231 cells at 2 uM after 24 hrs by SEAP reporter assay; assay type: cell-based
MDA-MB-231 [8] = assay: Cytotoxicity against estrogen receptor-negative human MDA-MB-231 cells assessed as cell viability after 72 hrs by MTT assay; assay type: functional, cell-based; conditions: MDA-MB-231, 72 h
MDA-MB-231 [9] = assay: Induction of apoptosis in estrogen receptor-negative human MDA-MB-231 cells assessed as reduced procaspase-3 level at 2 uM after 24 hrs by Western blotting analysis; assay type: functional, cell-based
MCF7 [10] = assay: Cytotoxicity against estrogen receptor-positive human MCF7 cells assessed as cell viability after 72 hrs by MTT assay; assay type: functional, cell-based; conditions: MCF7, 72 h
MDA-MB-231 [11] = assay: Cell cycle arrest in estrogen receptor-negative human MDA-MB-231 cells assessed as accumulation at S phase at 2 uM after 24 hrs by Propidium iodide staining-based flow cytometric analysis (reference value: 19 +/- 1%); assay type: functional
MDA-MB-231 [12] = assay: Effect on p21 gene expression in estrogen receptor-negative human MDA-MB-231 cells at 2 uM after 24 hrs by luciferase reporter gene assay; assay type: functional, cell-based
MDA-MB-231 [13] = assay: Cell cycle arrest in estrogen receptor-negative human MDA-MB-231 cells assessed as decrease in Cyclin E expression at 2 uM after 24 hrs by Western blotting analysis; assay type: functional, cell-based
MDA-MB-231 [14] = assay: Reduction in HDAC-3 nuclear expression in estrogen receptor-negative human MDA-MB-231 cells at 2 uM after 24 hrs by Western blotting analysis; assay type: functional, cell-based
MDA-MB-231 [15] = assay: Cell cycle arrest in estrogen receptor-negative human MDA-MB-231 cells assessed as accumulation at G2/M phase at 2 uM after 24 hrs by Propidium iodide staining-based flow cytometric analysis (reference value: 26.33 +/- 3.05%); assay type: functional
MDA-MB-231 [16] = assay: Cell cycle arrest in estrogen receptor-negative human MDA-MB-231 cells assessed as accumulation at G1 phase at 2 uM after 24 hrs by Propidium iodide staining-based flow cytometric analysis (reference value: 54.66 +/- 2.51%); assay type: functional
MDA-MB-231 [17] = assay: Inhibition of NFkappaB activity in estrogen receptor-negative human MDA-MB-231 cells assessed as reduction of cyclin D1 expression at 2 uM after 24 hrs by Western blotting analysis; assay type: cell-based
MDA-MB-231 [18] = assay: Inhibition of NFkappaB activity in estrogen receptor-negative human MDA-MB-231 cells assessed as reduction of Bcl-xL expression at 2 uM after 24 hrs by Western blotting analysis; assay type: cell-based
MDA-MB-231 [19] = assay: Inhibition of NFkappaB activity in estrogen receptor-negative human MDA-MB-231 cells assessed as reduction of p65 expression at 2 uM after 24 hrs by Western blotting analysis; assay type: cell-based
MDA-MB-231 [20] = assay: Inhibition of NFkappaB activity in estrogen receptor-negative human MDA-MB-231 cells assessed as cytoplasmic localization of p65 at 2 uM after 24 hrs by ELISA; assay type: cell-based
MDA-MB-231 [21] = assay: Inhibition of NFkappaB activity in estrogen receptor-negative human MDA-MB-231 cells assessed as upregulation of p27 gene expression at 2 uM after 24 hrs by luciferase reporter gene assay relative to control; assay type: cell-based
MDA-MB-231 [22] = assay: Inhibition of NFkappaB activity in estrogen receptor-negative human MDA-MB-231 cells assessed as inhibition of cyclin D1 promoter activation at 2 uM by chromatin immunoprecipitation assay; assay type: cell-based

| SMILES | inhibition (MCF7 [2]) | inhibition (MDA-MB-231 [7]) | IC50 (MDA-MB-231 [8]) | IC50 (MCF7 [10]) | further results |
| --- | --- | --- | --- | --- | --- |
| O=C(/C=C/C[C@@H]1CC=CC(=O)O1)CCc1ccccc1 [R-RUGULACTONE] | Active | Active | 3.44 µM | 3.59 µM | Activity (MDA-MB-231 [1]): Active; NF-kappaB activity inhibition (MDA-MB-231 [3]): Active; Activity (MDA-MB-231 [4]): Active; Activity (MDA-MB-231 [5]): Active; Activity (MDA-MB-231 [6]): Active; Activity (MDA-MB-231 [9]): Active; Activity (MDA-MB-231 [11]): 8.33%; Activity (MDA-MB-231 [12]): inactive; Activity (MDA-MB-231 [13]): Active; Activity (MDA-MB-231 [14]): Active; Activity (MDA-MB-231 [15]): 21.66%; Activity (MDA-MB-231 [16]): 70% |
| O=C(/C=C/C[C@@H]1CC=CC(=O)O1)CCc1cccc(O)c1 | Active | Active | 6.18 µM | 5.12 µM | – |
| CCCCCCCCCCCCCCCC(=O)/C=C/C[C@H]1CC=CC(=O)O1 | Active | Active | 3.98 µM | 3.79 µM | – |
| CCCCCCCCCCCC(=O)/C=C/C[C@@H]1CC=CC(=O)O1 | Active | Active | 5.42 µM | 4.56 µM | – |
| O=C(/C=C/C[C@H]1CC=CC(=O)O1)CCc1cccc(O)c1 | Active | Active | 6.68 µM | 4.32 µM | – |
| O=C(/C=C/C[C@@H]1CC=CC(=O)O1)CCc1ccc2c(c1)OCO2 | Active | Active | 7.93 µM | 6.56 µM | – |
| O=C(/C=C/C[C@@H]1CC=CC(=O)O1)CCc1ccc2ccccc2c1 | Active | Active | 4.74 µM | 4.72 µM | – |
| CCCCCCCCCCCCCCCCCCCC(=O)/C=C/C[C@H]1CC=CC(=O)O1 | Active | Active | 3.58 µM | 3.12 µM | – |
| CC(=O)/C=C/C[C@@H]1CC=CC(=O)O1 | Active | Active | 3.07 µM | 3.36 µM | Activity (MDA-MB-231 [1]): Active; NF-kappaB activity inhibition (MDA-MB-231 [3]): Active; Activity (MDA-MB-231 [4]): Active; Activity (MDA-MB-231 [5]): Active; Activity (MDA-MB-231 [6]): Active; Activity (MDA-MB-231 [9]): Active; Activity (MDA-MB-231 [11]): 6%; Activity (MDA-MB-231 [12]): inactive; Activity (MDA-MB-231 [13]): Active; Activity (MDA-MB-231 [14]): Active; Activity (MDA-MB-231 [15]): 26%; Activity (MDA-MB-231 [16]): 68% |
| CCCCCCCC/C=C\CCCCCCCC(=O)/C=C/C[C@H]1CC=CC(=O)O1 | Active | Active | 2.96 µM | 2.7 µM | inhibition (MDA-MB-231 [17]): Active; Activity (MDA-MB-231 [1]): Active; NF-kappaB activity inhibition (MDA-MB-231 [3]): Active; inhibition (MDA-MB-231 [18]): Active; Activity (MDA-MB-231 [11]): 8%; inhibition (MDA-MB-231 [19]): Active; Activity (MDA-MB-231 [12]): inactive; Activity (MDA-MB-231 [14]): Active; Activity (MDA-MB-231 [15]): 21.3%; Activity (MDA-MB-231 [16]): 70.6% |
| O=C(/C=C/C[C@@H]1CC=CC(=O)O1)CCc1c[nH]c2ccccc12 | Active | Active | 7.08 µM | 5.73 µM | – |
| O=C(/C=C/C[C@@H]1CC=CC(=O)O1)CCc1cccc(Oc2ccccc2)c1 | Active | Active | 4.91 µM | 4.56 µM | – |
| O=C(/C=C/C[C@H]1CC=CC(=O)O1)CCc1ccc2ccccc2c1 | Active | Active | 3.64 µM | 4.48 µM | – |
| CCCCCCCCCCCCCCCCCCCC(=O)/C=C/C[C@@H]1CC=CC(=O)O1 | Active | Active | 6.22 µM | 5.57 µM | – |
| CCCCCCCCCCCC(=O)/C=C/C[C@H]1CC=CC(=O)O1 | Active | Active | 3.16 µM | 4 µM | – |
| CCCCCCCC/C=C\CCCCCCCC(=O)/C=C/C[C@@H]1CC=CC(=O)O1 | Active | Active | 5.54 µM | 5.12 µM | – |
| O=C(/C=C/C[C@H]1CC=CC(=O)O1)CCc1cccc(Oc2ccccc2)c1 | Active | Active | 3.2 µM | 3.36 µM | – |
| CCCCCCCCCCCCCCCCC/C=C/C(=O)/C=C/C[C@@H]1CC=CC(=O)O1 | Active | Active | 4.49 µM | 3.76 µM | – |
| CCCCCCCCCCCCCCCCC/C=C/C(=O)/C=C/C[C@H]1CC=CC(=O)O1 | Active | Active | 2.87 µM | 3.04 µM | inhibition (MDA-MB-231 [17]): Active; Activity (MDA-MB-231 [1]): Active; NF-kappaB activity inhibition (MDA-MB-231 [3]): Active; inhibition (MDA-MB-231 [18]): Active; Activity (MDA-MB-231 [11]): 8%; inhibition (MDA-MB-231 [19]): Active; Activity (MDA-MB-231 [12]): inactive; Activity (MDA-MB-231 [14]): Active; Activity (MDA-MB-231 [15]): 19.3%; Activity (MDA-MB-231 [16]): 72.6% |
| O=C(/C=C/C[C@@H]1CC=CC(=O)O1)CCc1ccco1 | Active | Active | 3.37 µM | 4.37 µM | – |
| CCCCCCCCCCCCCCCCCC(=O)/C=C/C[C@@H]1CC=CC(=O)O1 | Active | Active | 2.1 µM | 2.32 µM | inhibition (MDA-MB-231 [20]): Active; inhibition (MDA-MB-231 [17]): Active; Activity (MDA-MB-231 [1]): Active; NF-kappaB activity inhibition (MDA-MB-231 [3]): Active; Activity (MDA-MB-231 [4]): Active; Activity (MDA-MB-231 [5]): Active; inhibition (MDA-MB-231 [18]): Active; Activity (MDA-MB-231 [6]): Active; Activity (MDA-MB-231 [9]): Active; Activity (MDA-MB-231 [11]): 6.33%; fold change (FC) (MDA-MB-231 [21]): 2.5; inhibition (MDA-MB-231 [19]): Active; Activity (MDA-MB-231 [12]): inactive; inhibition (MDA-MB-231 [22]): Active; Activity (MDA-MB-231 [13]): Active; Activity (MDA-MB-231 [14]): Active; Activity (MDA-MB-231 [15]): 19.6%; Activity (MDA-MB-231 [16]): 74% |
| CCCCCCCCCCCCCCCC(=O)/C=C/C[C@@H]1CC=CC(=O)O1 | Active | Active | 4.11 µM | 3.96 µM | – |
| CCCCCCCCCCCCCCCCCC(=O)/C=C/C[C@H]1CC=CC(=O)O1 | Active | Active | 3.93 µM | 4.32 µM | – |
| O=C(/C=C/C[C@H]1CC=CC(=O)O1)CCc1ccc2c(c1)OCO2 | Active | Active | 3.09 µM | 3.31 µM | – |
| O=C(/C=C/C[C@H]1CC=CC(=O)O1)CCc1c[nH]c2ccccc12 | Active | Active | 3.98 µM | 3.91 µM | – |
| O=C(/C=C/C[C@H]1CC=CC(=O)O1)CCc1ccco1 | Active | Active | 3.34 µM | 3.52 µM | – |

From ChEMBL document CHEMBL3124770, “Rugulactone derivatives act as inhibitors of NF-κB activation and modulates the transcription of NF-κB dependent genes in MDA-MB-231cells” (Bioorg Med Chem Lett, 2014)
